Assay results taken from US20210317092A1 (BAYER PHARMA AKTIENGESELLSCHAFT, priority 2016, published 2021).
Like-named read-outs stand apart in the source and are kept apart here.

Key:
[1] = cited from earlier work
[2] = cited from earlier work; remark: listed apart in the source
[3] = cited from earlier work; remark: listed apart in the source
[4] = biological target: T1, human Bradykinin B1 receptor (Homo sapiens, UniProt P46663); test: Calcium flux Assay (FLIPR) with recombinant CHO-K1 cells expressing human Bradykinin B1 receptor, in presence (hB1 IC50) or absence (hB1 free IC50) of 0.1% BSA; format: cell-based
T1 construct: host or cells: CHO-K1
T1 sequence (P46663 1-353): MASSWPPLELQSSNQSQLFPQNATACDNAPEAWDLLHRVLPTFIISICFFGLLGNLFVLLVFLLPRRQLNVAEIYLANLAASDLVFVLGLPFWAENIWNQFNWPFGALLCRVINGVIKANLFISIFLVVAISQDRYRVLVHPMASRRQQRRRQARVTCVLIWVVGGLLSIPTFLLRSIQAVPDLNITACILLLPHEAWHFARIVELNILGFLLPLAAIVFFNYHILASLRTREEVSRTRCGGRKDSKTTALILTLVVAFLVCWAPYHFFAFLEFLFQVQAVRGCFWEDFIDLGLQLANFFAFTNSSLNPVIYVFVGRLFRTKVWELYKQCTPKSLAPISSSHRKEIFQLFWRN

[5] = biological target: T2, native human Bradykinin B1 receptor (Homo sapiens, UniProt P46663); test: Calcium flux Assay (FLIPR) with human fibroblasts expressing Bradykinin B1 receptor (hB1 IMR-90); format: cell-based; conditions: IMR-90 human fibroblasts expressing native Bradykinin B1 receptor
T2 construct: which express native human Bradykinin B1 receptor after induction with human IL-10; Coriell Institute; host or cells: IMR-90 human foetal lung fibroblasts, cytokine-induced
T2 sequence (P46663 1-353): T1 sequence (P46663 1-353)
Summary of the method: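 IMR-90 human foetal lung fibroblasts induced with 0.35 ng/mL […] for 3 h, Fluo-4/AM-loaded, preincubated with compound (8 concentrations, triplicate) for 30 min at 28 °C, then challenged with Lys-(Des-Arg)-bradykinin at EC90. Ca2+ fluorescence was read at 538 nm; full inhibition set by 20 µM Lys-(Des-Arg-Leu)-bradykinin; IC50 derived.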

IL-6 secretion = test: Inhibitory activity on Bradykinin B1 agonist-induced secretion of IL-6 in human IMR-90 cells; format: cell-based; conditions: 30 min compound, stimulated with 0.1 μM Lys-[Des-Arg9]Bradykinin and 0.1 μM Sar-[D-Phe8]-des-Arg9-Bradykinin for 5 hours
Excerpt: (§1) Inhibitory activity on Bradykinin B1 agonist-induced secretion of IL-6 and IL-8 in human IMR-90 cells
(§2) The effect of the compound examples on secretion of the cytokine IL-6 and IL-8 has been investigated in the human foetal lung fibroblast IMR-90 cell line. Here the induction of the cytokine secretion was induced by the Bradykinin B1 agonists Lys-[Des-Arg9]Bradykinin (CAS 71800-36-7, Tocris Bioscience) and Sar-[D-Phe8]-des-Arg9-Bradykinin (CAS 126959-88-4, Tocris Bioscience) leading to the activation of the Bradykinin B1-driven signalling pathway. This effect is indicative for a strong anti-inflammatory mode of action in kinin driven inflammation.
(§3) IMR-90 cells were cultured in Eagle's Minimum Essential Medium (EMEM) containing 2 mM L-glutamine, 1 g/L glucose, 1.5 g/L NaHCO3, 1 mM sodium pyruvate and non-essential amino acids (ATCC, 30-2003™) supplemented with 10% FBS (Biochrom, S0615) and 50 U/mL Penicillin, 50 μg/mL Streptomycin (PAA, P11-010). The assay was performed in EMEM and a cell density of […] IMR-90 cells/96-well. The compound examples have been serial diluted in 100% DMSO and evaluated at 8 different concentrations within the range of 3 nM and 10 μM and a final DMSO concentration of 0.4%. The IMR-90 cells have been incubated with the respective concentration of the compound for 30 min. The enhanced secretion of IL-6 and IL-8 was induced by the stimulation of these cells with 0.1 μM Lys-[Des-Arg9]Bradykinin (Tocris, catalogue no. 3225) and 0.1 μM Sar-[D-Phe8]-des-Arg9-Bradykinin (Tocris, catalogue no. 3230) for 5 hours at 37° C. and 5% C02. Further, cells have been treated with Lys-[Des-Arg9]Bradykinin and Sar-[D-Phe8]-des-Arg9-Bradykinin as neutral control and with 0.1% DMSO as inhibitor control. The amount of IL-6 and IL-8 in the supernatant was determined using the Human Prolnflammatory Panel II (4-Plex) (MSD, K15025B) according to manufacturer's instruction. Briefly, supernatants were added onto assay plates and incubated at room temperature for 1-2 h with vigorous shaking at 600 rpm. Detection antibodies were then added onto the supernatants and incubated at room temperature for an additional 1-2 h with vigorous shaking at 600 rpm. Plates were washed three times with phosphate-buffered saline (PBS; 137 mM NaCl, 2.7 mM KCl, 6.5 mM Na2HPO4, 1.7 mM KH2P04) containing 0.05% Tween-20 (Bio-Rad, 161-0781) and electrochemiluminescence detected using the MSD Sector Imager 6000 plate reader. The cell viability was measured using the CellTiter-Glo Luminescent Assay (Promega, G7571) following the manufacturers protocol. Briefly, the CellTiter-Glo Reagent was diluted with PBS (1:1) and added directly to cells. After incubation and shaking for 10 minutes luminescent signal was measured which is proportional to the amount of ATP present.
(§4) The effect of the compound on the amount of secreted cytokine has been calculated as 100/(measured cytokine concentration of neutral control-measured cytokine concentration of inhibitor control)*(measured cytokine concentration of compound dose-measured cytokine concentration of inhibitor control). IC50 values are determined using 4-parameter-fit.
(§5) The compound examples were tested in triplicates per plate and the inhibitory activity was determined as the relation between neutral and inhibitor control in percent. IC50 values were calculated using the 4-parameter logistic model.

IL-8 secretion = test: Inhibitory activity on Bradykinin B1 agonist-induced secretion of IL-8 in human IMR-90 cells; format: cell-based; conditions: 30 min compound, stimulated with 0.1 μM Lys-[Des-Arg9]Bradykinin and 0.1 μM Sar-[D-Phe8]-des-Arg9-Bradykinin for 5 hours
Excerpt: as §1, §2, §3, §4, §5

[6] = due to metabolic tability; cited from earlier work
[7] = in absence of 0.1% BSA, read-out: hB1 free IC50
[8] = in presence of 0.1% BSA, read-out: hB1 IC50

IC50 [4, 7] [nM] | IC50 [4, 8] [nM] | IC50 [5] [nM] | Compound | other results
13.5 | 77.9 | 127 | CCOc1ncc(-c2ccc(NC(=O)C3(c4cccc(Cl)c4)CC3)cc2-c2nnn[nH]2)cc1Cl [Example 328, N-[4-(5-chloro-6-ethoxypyridin-3-yl)-3-(1H-tetrazol-5-yl)phenyl]-1-(3-chlorophenyl)cy-clopropanecarbox-amide] | 
85 | 90.5 | 70.3 | O=C(Nc1ccc(-c2ccc(N3CCOCC3)nc2)c(-c2nnn[nH]2)c1)C1(c2cccc(Cl)c2)CC1 [Example 329, 1-(3-chlorophenyl)-N-{4-[6-(morpholin-4-yl)pyridin-3-yl]-3-(1H-tetrazol-5-yl)phenyl}cyclopro-panecarboxa-mide] | 
8.98 | 20.4 | 6.03 | CCc1ccc(-c2ccc(NC(=O)C3(c4cccc(Cl)c4)CC3)cc2-c2nnn[nH]2)cn1 [Example 338, 1-(3-chlorophenyl)-N-[4-(6-ethylpyridin-3-yl)-3-(1H-tetrazol-5-yl)phenyl]cyclopro-panecarboxa-mide] | 
265 | 161 | 108 | CC(C)(O)c1ccc(-c2ccc(NC(=O)C3(c4cccc(Cl)c4)CC3)cc2-c2nnn[nH]2)cn1 [Example 340, 1-(3-chlorophenyl)-N-{4-[6-(2-hydroxypropan-2-yl)pyridin-3-yl]-3-(1H-tetrazol-5-yl)phenyl}cyclopro-panecarboxa-mide] | 
259 | 113 | 110 | CC(C)(O)Cc1ccc(-c2ccc(NC(=O)C3(c4cccc(Cl)c4)CC3)cc2-c2nnn[nH]2)cn1 [Example 343, 1-(3-Chlorophenyl)-N-{4-[6-(2-hydroxy-2-methylpropyl)pyridin-3-yl]-3-(1H-tetrazol-5-yl)phenyl}cyctopropanecarboxamide] | 

Further lines, the compound ahead of its results:

Compound | IC50 [4, 7] [nM] | IC50 [4, 8] [nM] | IC50 [5] [nM] | other results
C[C@@H]1CC[C@H](C)N1C(=O)c1ccc([C@@H](C)NC(=O)C2(NC(=O)c3cc(F)cc(C(F)(F)F)c3)CC2)c(F)c1 |  |  |  | aqueous solubility [1]: reasonable; pharmacokinetic profile in rat [2]: reasonable; human metabolic stability [3]: poor
COc1cnccc1-c1ccc(NC(=O)C2(c3cccc(Cl)c3)CC2)cc1-c1nnn[nH]1 [Example 327, 1-(3-chlorophenyl)-N-[4-(3-methoxypyridin-4-yl)-3-(1H-tetrazol-5-yl)phenyl]cyclopro-panecarboxa-mide] | 71.2 | 70.9 | 164 | 
CC(C)(C)c1ccn(-c2ccc(NC(=O)C3(c4ccc(C(F)(F)F)cc4F)CC3)cc2-c2nnn[nH]2)n1 [Example 380, N-[4-(3-tert-Butyl-1H-pyrazol-1-yl)-3-(1H-tetrazol-5-yl)phenyl]-1-[2-fluoro-4-(trifluoromethyl)phenyl]cyclopro-panecarboxamide] | 30.8 |  |  | IC50 (IL-6 secretion): > 10000 nM; IC50 (IL-8 secretion): 345 nM
O=C(Nc1ccc(-n2ccc(CC(F)(F)F)n2)c(-c2nnn[nH]2)c1)C1(c2ccc(C(F)(F)F)cc2F)CC1 [Example 389, 1-[2-fluoro-4-(trifluoromethyl)phenyl]-N-{3-(1H-tetrazol-5-yl)-4-[3-(2,2,2-trifluoroethyl)-1H-pyrazol-1-yl]phenyl}cyclo-propanecarboxa-mide] | 11 |  |  | IC50 (IL-6 secretion): 253 nM; IC50 (IL-8 secretion): 258 nM
CC(C)(C)c1cn(-c2ccc(NC(=O)C3(c4ccc(OC(F)(F)F)cc4F)CC3)cc2-c2nnn[nH]2)cn1 [Example 404, N-[4-(4-tert-butyl-1H-imidazol-1-yl)-3-(1H-tetrazol-5-yl)phenyl]-1-[2-fluoro-4-(trifluoromethoxy)phenyl]cyclo-propanecarboxa-mide] | 6.36 |  |  | IC50 (IL-6 secretion): 69 nM; IC50 (IL-8 secretion): 59 nM
C[C@@H](NC(=O)C1(NC(=O)C(F)(F)F)CC1)c1ccc(-c2cccc(Cl)c2C(=O)O)cc1F [MK-0686] |  |  |  | pharmacokinetic profile [6]: suboptimal
N-[4-(6- ethoxypyridin-3- yl)-3-(1H- tetrazol-5- yl)phenyl]-1-(4- ethylphenyl) cyclopropane- carboxamide [Example 69] | 6.75 | 30.9 | 16.2 | 
